How the values were obtained:
[1] = target: T1, ToCDS (cysteine desulfurase, CDS) (Thermococcus onnurineus, UniProt B6YT87); assay: X-ray crystallography; assay type: binding
T1 construct: gene TON_0289; full length, 399 residues, N-terminal 7xHis-TEV tag (cleavage not mentioned), E. coli BL21(DE3), about 44 kDa, homodimer; PLP on Lys216, catalytic Cys356; EC 2.8.1.7; primers encode N-terminus MIPEDV and C-terminus KGLKT
Excerpt: X-ray crystallography on ToCDS (cysteine desulfurase, CDS) | PLP was Schiff-base linked with […] at the active site. | the alanine was tightly bound: the conserved […] side chain had bifurcated hydrogen bonds

[2] = target: cysteine desulfurase from Thermococcus onnurineus NA1 (Thermococcus onnurineus NA1); assay: crystal structure; ToCDS alone (crystal I, NAT, 2.6 Å, space group P212121), a dimer in the asymmetric unit; crystals II-IV soaked or co-crystallised with 5 mM L-cysteine and 1 mM PLP, each with protomers A and B

T1 sequence (B6YT87 entry or part of it): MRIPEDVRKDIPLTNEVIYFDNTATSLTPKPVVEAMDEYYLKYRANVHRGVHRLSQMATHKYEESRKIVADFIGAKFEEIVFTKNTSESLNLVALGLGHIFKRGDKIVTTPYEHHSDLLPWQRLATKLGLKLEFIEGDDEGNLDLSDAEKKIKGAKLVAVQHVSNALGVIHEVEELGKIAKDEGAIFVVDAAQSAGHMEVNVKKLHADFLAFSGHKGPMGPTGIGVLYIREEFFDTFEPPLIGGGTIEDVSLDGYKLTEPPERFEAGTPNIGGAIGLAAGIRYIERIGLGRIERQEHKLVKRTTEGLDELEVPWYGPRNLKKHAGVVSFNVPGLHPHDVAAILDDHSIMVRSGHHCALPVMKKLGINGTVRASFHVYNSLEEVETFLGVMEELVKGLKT

`Cc1ncc(COP(=O)(O)O)c(C=O)c1O` [PLP, pyridoxal 5′-phosphate] was tested, and the X-ray crystallography ([1]; covalent, internal aldimine Schiff base with Lys216, native crystal I, 2.6 Å, pH 8.5) was “PLP was Schiff-base linked with Lys216 at the active site”.
`C[C@H](N)C(=O)O` [alanine] was tested, and the X-ray crystallography ([1]; crystal III 1.5 Å (protomer A: unbonded alanine, internal aldimine; protomer B: gem-diamine) and crystal II 2.3 Å (gem-diamine, covalent to PLP), from L-cysteine and PLP by cocrystallization or soakin) was “the alanine was tightly bound: the conserved Arg371 side chain had bifurcated hydrogen bonds”.
“cysteine desulfurase from Thermococcus onnurineus NA1 (enzyme)” gave a stoichiometry N [2] of 2.
